Data: ChEMBL document CHEMBL1201862, “PubChem BioAssay data set” (2004)
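Results reflect a 48-hour exposure of cells in 96-well plates to compound at five concentrations. The concentration for 50% growth inhibition is given as GI50.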 Calls of active or inactive are those of the source. Rule as the data show it: active = GI50 up to about 1.1 µM and inactive = higher.

What was measured:
Assay in all cases: inhibition of tumour cell growth, NCI panel, 48 h
[1] = tested on: HL-60
[2] = tested on: HCT-15
[3] = tested on: UO-31
[4] = tested on: ACHN
[5] = tested on: A549
[6] = tested on: COLO 205
[7] = tested on: SF-295
[8] = tested on: RXF 393
[9] = tested on: CAKI-1
[10] = tested on: TK-10
[11] = tested on: OVCAR-3
[12] = tested on: IGROV-1
[13] = tested on: K562
[14] = tested on: M19-MEL
[15] = tested on: EKVX
[16] = tested on: HCC 2998
[17] = tested on: HCT-116
[18] = tested on: SW-620
[19] = tested on: M14
[20] = tested on: 786-0
[21] = tested on: SF-268
[22] = tested on: SNB-78
[23] = tested on: Malme-3M
[24] = tested on: SNB-19
[25] = tested on: SF-539
[26] = tested on: KM12
[27] = tested on: NCI-H522
[28] = tested on: HOP-62
[29] = tested on: SK-MEL-2
[30] = tested on: MOLT-4
[31] = tested on: UACC-257
[32] = tested on: A498
[33] = tested on: SK-OV-3
[34] = tested on: SN12C
[35] = tested on: OVCAR-4
[36] = tested on: SNB-75
[37] = tested on: NCI-H460
[38] = tested on: KM-20L2
[39] = tested on: NCI-H226
[40] = tested on: OVCAR-5
[41] = tested on: HOP-18
[42] = tested on: RPMI-8226
[43] = tested on: HT-29
[44] = tested on: U-251
[45] = tested on: NCI-H23
[46] = tested on: UACC-62
[47] = tested on: SK-MEL-5
[48] = tested on: RXF 631
[49] = tested on: DMS-273
[50] = tested on: OVCAR-8
[51] = tested on: CCRF-CEM
[52] = tested on: DLD-1
[53] = tested on: LXFL 529
[54] = tested on: DMS-114
[55] = tested on: SK-MEL-28
[56] = tested on: LOX IMVI
[57] = tested on: HOP-92
[58] = tested on: SR

Measured: GI50

Cc1ccccc1C(=O)Oc1ccc(O)cc1
> 100 µM: [2]
inactive: [1] > 100 µM | [3] > 100 µM | [4] > 100 µM | [5] > 100 µM | [6] > 100 µM | [7] > 100 µM | [8] > 100 µM | [9] > 100 µM | [10] > 100 µM | [11] > 100 µM | [12] > 100 µM | [13] > 100 µM | [14] > 100 µM | [15] > 100 µM | [16] > 100 µM | [17] > 100 µM | [18] > 100 µM | [19] > 100 µM | [20] > 100 µM | [21] > 100 µM | [22] > 100 µM | [23] > 100 µM | [24] > 100 µM | [25] > 100 µM | [26] > 100 µM | [27] > 100 µM | [28] > 100 µM | [29] > 100 µM | [30] > 100 µM | [31] > 100 µM | [32] > 100 µM | [33] > 100 µM | [34] > 100 µM | [35] > 100 µM | [36] > 100 µM | [37] > 100 µM | [38] > 100 µM | [39] > 100 µM | [40] > 100 µM | [41] > 100 µM | [42] > 100 µM | [43] > 100 µM | [44] > 100 µM | [45] > 100 µM | [46] > 100 µM | [47] > 100 µM | [48] > 100 µM | [49] > 100 µM | [50] > 100 µM | [51] > 100 µM | [52] > 100 µM

COC(=O)Cc1c([C@@]2(C)CCCC(C)(C)C2)ccc2c1C(=O)OC2
6.44 µM: [2]
inactive: [1] 3.42 µM | [53] 7.29 µM | [3] 3.58 µM | [4] 11.7 µM | [5] 9.84 µM | [6] 6.7 µM | [54] 3.96 µM | [7] 10.3 µM | [8] 10.4 µM | [9] > 10 µM | [10] 17.9 µM | [11] 5.25 µM | [12] 15 µM | [13] 4.02 µM | [14] 15.1 µM | [55] 13.1 µM | [15] 18.1 µM | [17] 5.64 µM | [18] 18.9 µM | [19] 10.5 µM | [20] 15.7 µM | [56] 11.2 µM | [22] 14.9 µM | [23] 17.9 µM | [25] 15.6 µM | [26] 8.15 µM | [27] 5.04 µM | [30] 3.92 µM | [31] 5.66 µM | [32] 25.5 µM | [33] 14 µM | [34] 10.1 µM | [36] 14.3 µM | [37] 8.83 µM | [39] 11.2 µM | [41] 18.3 µM | [42] 2.7 µM | [43] 10.8 µM | [44] 13.3 µM | [57] 3.01 µM | [45] 9.35 µM | [46] 10.6 µM | [47] 7.36 µM | [48] 12.9 µM | [49] 5.43 µM | [50] 15.3 µM | [51] 6.49 µM | [52] 3.62 µM

Cc1ccc(S(=O)(=O)OC[C@@H]2CO2)cc1
inactive: [1] > 100 µM | [53] > 100 µM | [3] > 100 µM | [4] > 100 µM | [5] > 100 µM | [6] > 100 µM | [8] > 100 µM | [9] > 100 µM | [10] 44.6 µM | [11] > 100 µM | [12] > 100 µM | [13] > 100 µM | [14] > 100 µM | [55] > 100 µM | [15] > 100 µM | [16] > 100 µM | [17] > 100 µM | [18] > 100 µM | [19] > 100 µM | [20] > 100 µM | [56] 99.3 µM | [22] > 100 µM | [23] > 100 µM | [24] > 100 µM | [25] > 100 µM | [26] > 100 µM | [28] > 100 µM | [29] > 100 µM | [30] > 100 µM | [31] > 100 µM | [32] > 100 µM | [34] > 100 µM | [35] > 100 µM | [36] > 100 µM | [37] > 100 µM | [38] > 100 µM | [39] > 100 µM | [58] > 100 µM | [40] > 100 µM | [41] > 100 µM | [43] > 100 µM | [57] > 100 µM | [45] > 100 µM | [47] > 100 µM | [48] 68.7 µM | [49] > 100 µM | [50] > 100 µM | [51] > 100 µM | [52] > 100 µM
> 100 µM: [2]

CCN(c1ccccc1)[C@H]1C(=O)N(c2ccc([N+](=O)[O-])cc2)[C@H]1c1ccc(OC)cc1
inactive: [1] 75.3 µM | [53] > 100 µM | [3] > 100 µM | [4] > 100 µM | [5] > 100 µM | [6] 38 µM | [54] > 100 µM | [7] 52.5 µM | [8] 37.6 µM | [9] 73.3 µM | [10] > 100 µM | [11] > 100 µM | [12] > 100 µM | [13] 41.6 µM | [14] 61.7 µM | [55] > 100 µM | [15] > 100 µM | [16] > 100 µM | [17] > 100 µM | [18] > 100 µM | [20] > 100 µM | [21] > 100 µM | [22] > 100 µM | [23] > 100 µM | [24] > 100 µM | [25] 35.2 µM | [26] > 100 µM | [27] 63.5 µM | [29] > 100 µM | [30] > 100 µM | [31] > 100 µM | [32] 80.7 µM | [33] 56.8 µM | [34] 98.6 µM | [36] 46.9 µM | [37] > 100 µM | [39] > 100 µM | [58] > 100 µM | [40] > 100 µM | [42] > 100 µM | [43] > 100 µM | [44] > 100 µM | [57] 15.8 µM | [45] > 100 µM | [46] 35.7 µM | [47] > 100 µM | [48] 35.8 µM | [49] > 100 µM | [50] > 100 µM | [51] 39.1 µM | [52] > 100 µM

O=c1c(O)cccn1C1OC(CO)C(O)C1O (stereo not given)
> 100 µM: [2]
inactive: [53] > 100 µM | [3] > 100 µM | [4] > 100 µM | [5] > 100 µM | [6] > 100 µM | [54] > 100 µM | [8] > 100 µM | [9] > 100 µM | [10] > 100 µM | [12] > 100 µM | [13] > 100 µM | [55] > 100 µM | [15] > 100 µM | [16] > 100 µM | [17] > 100 µM | [19] > 100 µM | [20] > 100 µM | [56] > 100 µM | [21] > 100 µM | [22] > 100 µM | [23] > 100 µM | [24] > 100 µM | [26] > 100 µM | [27] > 100 µM | [29] > 100 µM | [31] > 100 µM | [32] > 100 µM | [33] > 100 µM | [34] > 100 µM | [35] > 100 µM | [36] > 100 µM | [37] > 100 µM | [38] > 100 µM | [39] > 100 µM | [40] > 100 µM | [41] > 100 µM | [42] > 100 µM | [43] > 100 µM | [44] > 100 µM | [57] > 100 µM | [45] > 100 µM | [46] > 100 µM | [48] > 100 µM | [49] > 100 µM | [50] > 100 µM | [51] > 100 µM | [52] > 100 µM
